Data on 26 molecules can be found in patent US20080027014A1, “Novel SGLT inhibitors” (Tanabe Seiyaku Co., Ltd., priority 2006, published 2008).

The first data set concerns male Sprague-Dawley (SD) rats. Nature of the data set: Urinary glucose excretion test in rats. It counts as in vivo, rat. As to conditions: 30 mg/kg by oral gavage, urine collected for 24 hours, daily amount of glucose excreted per individual. The method, then:
2. Urinary Glucose Excretion Test in Rats
Compounds described in the above examples were used for the Urinary glucose excretion test in rats.
6-week-old male Sprague-Dawley (SD) rats were housed in individual metabolic cages with free access to food and water from 2 days prior to the experiment. On the morning of the experiment, rats were administered vehicle (0.2% carboxymethyl cellulose solution containing 0.2% Tween80) or test compounds (30 mg/kg) by oral gavage at a volume of 10 ml/kg. Then, urine of the rat was collected for 24 hours, and the urine volume was measured. Subsequently, the glucose concentration in urine was quantified using the enzymatic assay kit and the daily amount of glucose excreted in urine per individual was calculated.
As to `OC[C@H]1O[C@@H](c2ccc(Cl)c(Cc3cc4ccccc4s3)c2)[C@H](O)[C@@H](O)[C@H]1F` [Example 5, 3-(Benzo[b]thiophen-2-ylmethyl)-4-chloro-1-(4-fluoro-4-deoxy-β-D-galactopyranosyl)benzene], the Urinary glucose entry is “A (A≧2400 mg)”.

As for `CCc1ccc(Cc2cn([C@@H]3S[C@H](CO)[C@@H](O)[C@H](O)[C@H]3O)c3cccc(Cl)c23)cc1` [Example 2, 4-Chloro-3-(4-ethylphenylmethyl)-1-(5-thio-β-D-glucopyranosyl)indole], the Urinary glucose entry is “B (2400 mg>B≧2000 mg)”.

Tested on in another data set: not given
Test: not given
Details: not given
Molecule `OC[C@H]1O[C@@H](c2ccc(Cl)c(Cc3cc4ccccc4s3)c2)[C@H](O)[C@@H](O)[C@H]1F` [Example 5, 3-(Benzo[b]thiophen-2-ylmethyl)-4-chloro-1-(4-fluoro-4-deoxy-β-D-galactopyranosyl)benzene] came in with a melting point of 153 to 154 °C.

A further data set concerns the target T1, human SGLT2 (Homo sapiens, UniProt P31639).
T1 construct: expressed in transfected cells; host or cells: CHOK1 cells (kept under Geneticin selection)
T1 sequence (P31639 1-672): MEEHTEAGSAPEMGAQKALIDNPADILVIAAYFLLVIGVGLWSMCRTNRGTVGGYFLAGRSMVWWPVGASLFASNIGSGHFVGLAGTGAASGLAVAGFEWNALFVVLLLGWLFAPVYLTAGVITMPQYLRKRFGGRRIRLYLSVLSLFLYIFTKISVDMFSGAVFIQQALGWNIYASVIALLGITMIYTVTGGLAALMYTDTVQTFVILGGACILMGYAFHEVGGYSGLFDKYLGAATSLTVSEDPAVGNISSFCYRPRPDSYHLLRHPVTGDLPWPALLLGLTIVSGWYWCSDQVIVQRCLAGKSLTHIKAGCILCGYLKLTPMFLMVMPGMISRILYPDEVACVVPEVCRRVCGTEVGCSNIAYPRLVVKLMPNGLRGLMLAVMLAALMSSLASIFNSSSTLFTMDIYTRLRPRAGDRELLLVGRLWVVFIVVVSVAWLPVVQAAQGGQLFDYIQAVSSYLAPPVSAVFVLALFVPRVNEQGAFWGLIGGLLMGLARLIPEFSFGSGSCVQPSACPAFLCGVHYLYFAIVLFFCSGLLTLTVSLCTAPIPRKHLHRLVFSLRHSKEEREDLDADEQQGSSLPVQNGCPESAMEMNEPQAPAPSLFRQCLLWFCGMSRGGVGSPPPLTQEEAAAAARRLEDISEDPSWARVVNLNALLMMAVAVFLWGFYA
Nature of the data set: Assay for SGLT2 inhibition (14C-AMG uptake in CHOK1 cells expressing human SGLT2). Type of data set: cell-based. The following applies: CHOK1 cells expressing human SGLT2, 14C-AMG uptake 0.5 mM, 2 hours at 37° C. Here is the method: 1. Assay for SGLT2 Inhibition
Compounds described in the above examples were used for the SGLT2 inhibition assay.
CHOK1 cells expressing human SGLT2 were seeded in 24-well plates at a density of 400,000 cells/well in F-12 nutrient mixture (Ham's F-12) containing 10% fetal bovine serum, 400 μg/ml Geneticin, 50 units/ml sodium penicillin G (Gibco-BRL) and 50 μg/ml streptomycin sulfate. After 2 days of culture at 37° C. in a humidified atmosphere containing 5% CO2, cells were washed once with the assay buffer (137 mM NaCl, 5 mM KCl, 1 mM CaCl2, 1 mM MgCl2, 50 mM Hepes, and 20 mM Tris, pH 7.4) and incubated with 250 μl of the buffer containing test compounds for 10 min at 37° C. Test compounds were dissolved in DMSO. The final concentration of DMSO was 0.5%. The transport reaction was initiated by addition of 50 μl [^14C]-methyl-α-D-glucopyranoside (^14C-AMG) solution (final concentration, 0.5 mM). After incubation for 2 hours at 37° C., the uptake was stopped by aspiration of the incubation mixture, the cells were washed three times with ice-cold PBS. Then, cells were solubilized with 0.3 N NaOH and aliquots were taken for determination of radioactivity by a liquid scintillation counter. Nonspecific AMG uptake was defined as that which occurred in the presence of 100 μM of phlorizin, a specific inhibitor of sodium-dependent glucose cotransporter. Specific uptake was normalized for the protein concentrations measured by the method of Bradford. The 50% inhibitory concentration (IC50) values were calculated from dose-response curves by least square method.
For `OC[C@H]1S[C@@H](n2cc(Cc3ccc4occc4c3)c3c(F)cccc32)[C@H](O)[C@@H](O)[C@@H]1O` [Example 18], 190 nM corresponded to half-maximal inhibition (IC50).

With `OC[C@H]1S[C@@H](n2cc(Cc3ccc(Cl)cc3)c3c(Cl)cccc32)[C@H](O)[C@@H](O)[C@@H]1O` [Example 13], inhibition was half-maximal at 110 nM (IC50).

In the case of `CCOc1ccc(Cc2cn([C@@H]3S[C@H](CO)[C@@H](O)[C@H](O)[C@H]3O)c3cccc(C)c23)cc1` [Example 19], the IC50 is 46 nM.

`CCc1ccc(Cc2cn([C@@H]3S[C@H](CO)[C@@H](O)[C@H](O)[C@H]3O)c3cccc(Cl)c23)s1` [Example 25]: the IC50 was 67 nM.

Molecule `CSc1ccc(Cc2cn([C@@H]3S[C@H](CO)[C@@H](O)[C@H](O)[C@H]3O)c3cccc(Cl)c23)cc1` [Example 10] registered an IC50 of 22 nM.

Take `OC[C@H]1O[C@@H](c2ccc(Cl)c(Cc3cc4ccccc4s3)c2)[C@H](O)[C@@H](O)[C@H]1F` [Example 5, 3-(Benzo[b]thiophen-2-ylmethyl)-4-chloro-1-(4-fluoro-4-deoxy-β-D-galactopyranosyl)benzene]: the IC50 was 5.3 nM.

In turn, `Cc1cccc2c1c(Cc1ccc(C3CC3)cc1)cn2[C@@H]1S[C@H](CO)[C@@H](O)[C@H](O)[C@H]1O` [Example 28] registered an IC50 of 19 nM.

Consider `OC[C@H]1S[C@@H](n2cc(Cc3ccc(Br)cc3)c3c(Cl)cccc32)[C@H](O)[C@@H](O)[C@@H]1O` [Example 14], for which the IC50 turned out to be 97 nM.

For `OC[C@H]1S[C@@H](n2cc(Cc3ccc(Br)s3)c3c(Cl)cccc32)[C@H](O)[C@@H](O)[C@@H]1O` [Example 23], 170 nM corresponded to half-maximal inhibition (IC50).

In turn, `OC[C@H]1S[C@@H](n2cc(Cc3ccc(-c4ccc(F)nc4)s3)c3c(Cl)cccc32)[C@H](O)[C@@H](O)[C@@H]1O` [Example 26] had an IC50 of 190 nM.

As to `O[C@@H]1[C@@H](O)[C@H](c2ccc(Cl)c(Cc3ccc(-c4ccccc4)s3)c2)O[C@H](CF)[C@H]1O` [Example 6, 4-Chloro-3-(5-phenyl-2-thienylmethyl)-1-(6-fluoro-6-deoxy-β-D-glucopyranosyl)benzene], the IC50 was found to be 31 nM.

For the molecule `OC[C@H]1S[C@@H](n2cc(Cc3ccc4occc4c3)c3c(Cl)cccc32)[C@H](O)[C@@H](O)[C@@H]1O` [Example 8], inhibition was half-maximal at 41 nM (IC50).

For the molecule `CCc1ccc(Cc2cn([C@@H]3S[C@H](CO)[C@@H](O)[C@H](O)[C@H]3O)c3ccccc23)cc1` [Example 1, 3-(4-Ethylphenylmethyl)-1-(5-thio-β-D-glucopyranosyl)indole], half-maximal inhibition (IC50) was put at 180 nM.

Regarding `CCc1ccc(Cc2cn([C@@H]3S[C@H](CO)[C@@H](O)[C@H](O)[C@H]3O)c3cccc(Cl)c23)cc1` [Example 2, 4-Chloro-3-(4-ethylphenylmethyl)-1-(5-thio-β-D-glucopyranosyl)indole], the IC50 stood at 21 nM.

Regarding `Cc1cccc2c1c(Cc1ccc(Cl)cc1)cn2[C@@H]1S[C@H](CO)[C@@H](O)[C@H](O)[C@H]1O` [Example 20], half-maximal inhibition (IC50) required 180 nM.

Regarding `COc1ccc(Cc2cn([C@@H]3S[C@H](CO)[C@@H](O)[C@H](O)[C@H]3O)c3cccc(Cl)c23)cc1` [Example 15], it took 15 nM to reach half-maximal inhibition (IC50).

On to `OC[C@H]1S[C@@H](n2cc(Cc3ccc(-c4ccccn4)s3)c3c(Cl)cccc32)[C@H](O)[C@@H](O)[C@@H]1O` [Example 33], for which the IC50 was 10 nM.

In turn, `N#Cc1cccc(-c2ccc(Cc3cn([C@@H]4S[C@H](CO)[C@@H](O)[C@H](O)[C@H]4O)c4cccc(Cl)c34)s2)c1` [Example 22] came in with an IC50 of 210 nM.

`OC[C@H]1O[C@@H](c2ccc(Cl)c(Cc3cc4ccccc4s3)c2)[C@H](O)[C@@H](O)[C@H]1O` [Example 35] had an IC50 of 17 nM.

`OC[C@H]1S[C@@H](n2cc(Cc3ccc(C(F)F)cc3)c3c(Cl)cccc32)[C@H](O)[C@@H](O)[C@@H]1O` [Example 34] had an IC50 of 35 nM.

`OC[C@H]1S[C@@H](n2cc(Cc3ccc(-c4cccs4)cc3)c3c(F)cccc32)[C@H](O)[C@@H](O)[C@@H]1O` [Example 31] had an IC50 of 150 nM.

The molecule `OC[C@H]1S[C@@H](n2cc(Cc3ccc4ccccc4c3)c3c(Cl)cccc32)[C@H](O)[C@@H](O)[C@@H]1O` [Example 16] gave an IC50 of 130 nM.

The molecule `CCc1ccc(Cc2cn([C@@H]3O[C@H](CO)[C@@H](F)[C@H](O)[C@H]3O)c3ncccc23)cc1` [Example 36] gave an IC50 of 120 nM.

`OC[C@H]1S[C@@H](n2cc(Cc3ccc(I)cc3)c3c(F)cccc32)[C@H](O)[C@@H](O)[C@@H]1O` [Example 17] had an IC50 of 63 nM.

With `OC[C@H]1S[C@@H](n2cc(Cc3ccc(OC(F)F)cc3)c3c(Cl)cccc32)[C@H](O)[C@@H](O)[C@@H]1O` [Example 30], inhibition was half-maximal at 54 nM (IC50).

The subject of the next data set is diabetic animal models.
Test: not given
The following applies: continuous subcutaneous administration; cited from earlier work.
Regarding `O=C(CCc1ccc(O)cc1)c1c(O)cc(O)cc1O[C@@H]1O[C@H](CO)[C@@H](O)[C@H](O)[C@H]1O` [phlorizin], the blood glucose level result is recorded as “normalized”.

As a reminder, the melting point is the temperature, or range, at which the solid turns liquid. The term IC50 denotes the midpoint of a concentration-inhibition curve.
